≈ marks a conversion by molar mass, not a printed value.
Tested on: Porphyromonas gingivalis
Assay: Antibacterial MIC testing (agar dilution, anaerobic)
Format: cell-based
Conditions: supplemented Brucella agar, 44 h, 36° C.
Procedure: Epetraborole was placed is a stock solution and stored at −70° C. Serial two-fold dilutions were prepared on the day of testing.
Porphyromonas gingivalis organisms were recovered from clinical samples, identified by standard methods or by partial sequencing of the 16S gene and stored in 20% skim milk at −70° C. All isolates were taken from the freezer and subcultured at least twice on supplemented Brucella agar to ensure good growth. Inocula were prepared by direct suspensions of cells from 48 h cultures into saline or Brucella broth.
For all tested organisms, supplemented Brucella agar deeps were obtained from Anaerobe Systems (Morgan Hill, CA). Defibrinated sheep blood (Hardy Diagnostics, Santa Maria, CA) was frozen and thawed to produce laked blood. On the day of testing, laked blood and the antimicrobial agents were added to the tubes of molten agar before pouring the agar dilution plates. The strains were applied to the plates using a Steers multipronged inoculator for a final concentration of approximately 10^5 cfu/spot. After 44 h incubation at 36° C. in the anaerobic chamber incubator, the plates were examined for growth, and the MICs interpreted.

## NC[C@H]1OB(O)c2c(OCCCO)cccc21 [Epetraborole]
Po. gingivalis clinical isolate RMA# 15676 (Abd-perit.fld)
  MIC: 2 µg/mL (≈ 8.44 µM)
Po. gingivalis clinical isolate RMA# 15913 (Abd-perit.fld)
  MIC: 2 µg/mL (≈ 8.44 µM)
Po. gingivalis clinical isolate RMA# 16269 (Abd-perit.fld)
  MIC: 0.125 µg/mL (≈ 0.527 µM)
Po. gingivalis clinical isolate RMA# 16389 (Abd-perit.fld)
  MIC: 0.5 µg/mL (≈ 2.11 µM)
